Publication PMC9863562, “Design, Synthesis, and Biological Evaluation of 2-Mercaptobenzoxazole Derivatives as Potential Multi-Kinase Inhibitors” (Pharmaceuticals, 2023)

Columns and labels:
Caspase-9 = assay: Apoptosis-related proteins in HepG2 cells (ELISA), Caspase-9; assay type: cell-based, human
Source text: (§1) Compound 6b was selected to investigate the apoptotic markers against the liver cancer cell line (HepG2). […] Typically, Bax, Bcl-2, and caspases contribute to the regulation of apoptotic signaling. Acting as an apoptotic activator (Bax) or inhibitor (Bcl-2), the Bcl-2 family of proteins plays a significant role in apoptosis. The caspase family comprises cysteine proteases that are classified as either executioner—caspase-3, or as initiators—caspase-9 and caspase-8 [40]. […] Nevertheless, considerable downregulation of the anti-apoptotic gene, Bcl-2 (0.26 folds), was described, leading to an increased expression ratio of Bax/Bcl-2 (1→20.53). The Bax/Bcl-2 gene expression ratio can serve as an early predictor for cancer in patients and is a sensitive monitor of cancer progression. […]
(§2) The HepG2 cells were incubated in 96-well plates in triplicates and left for 24 h. […] The treated cells, along with control cells, were then incubated for another 24 h; then, caspases-3 and 9, BAX, and Bcl-2 levels were determined using ELISA assay kits; KHO1091 (Invitrogen^TM, Grand Island, NY, USA), EIA-4860 (DRU International, Inc., Mountainside, NJ, USA), EIA-4487 (DRU International INC., Mountainside, NJ, USA) and 99–0042 (Invitrogen^TM, Grand Island, NY, USA), respectively, according to their manufacturers’ procedures.

Bcl-2 = assay: Apoptosis-related proteins in HepG2 cells (ELISA), Bcl-2; assay type: cell-based, human
Source text: as §1, §2

[1] = system: HepG2 cells (hepatocellular carcinoma); assay: MTT cytotoxicity assay, HepG2; assay type: cell-based; conditions: Homo sapiens, HepG2, 24 h, 24 h treatment, read-out: In Vitro Cytotoxicity IC50 HepG2
Source text: The in vitro cytotoxicity for the final target compounds, 4(a–d), 5(a–f), and 6(a–b), was preliminarily evaluated via the MTT colorimetric assay against a panel of four human cell lines, namely, the hepatocellular carcinoma (HepG2), mammary gland (MCF-7), breast cancer (MDA-MB-231) and epithelioid cervix carcinoma (HeLa).
The cytotoxicity of the target hybrids was examined by an MTT assay against HepG2, HeLa, MCF-7, and MDA-MB-231. At first, the RPMI-1640 medium with 10% fetal bovine serum was used to cultivate the cell lines. Then, antibiotics (penicillin (100 units/mL) and streptomycin (100 µg/mL)) were added in a 37 °C incubator in 5% CO2. The cell lines were seeded in a 96-well plate at a density of 1.0 × 10^4 cells/well at 37 °C under 5% CO2 for 48 h. After incubation, the cells were treated with various concentrations of the synthesized compounds and incubated for an additional 24 h. Following the drug treatment, 20 µL of 5 mg/mL MTT solution was added and incubated for 4 h. To dissolve the purple formazan that had formed, 100 µL dimethyl sulfoxide (DMSO) was added to each well. At a wavelength of 570 nm, the colorimetric assay was recorded and measured, using a plate reader BioTek EXL 800 (Agilent Technologies, Inc., Santa Clara, CA, USA). The percentage of relative cell viability was counted using the following formula (A570 of handled specimens/A570 of the unhandled specimen), multiplied by 100. The results of the cytotoxicity value were presented as the median growth inhibitory concentration (IC50) of the reagents compared to the control.

[2] = system: HeLa cells (epithelioid cervix carcinoma); assay: MTT cytotoxicity assay, HeLa; assay type: cell-based; conditions: Homo sapiens, 24 h treatment, read-out: In Vitro Cytotoxicity IC50 Hela
Description: (§3) After incubation, the cells were treated with various concentrations of the synthesized compounds and incubated for an additional 24 h. Following the drug treatment, 20 µL of 5 mg/mL MTT solution was added and incubated for 4 h. To dissolve the purple formazan that had formed, 100 µL dimethyl sulfoxide (DMSO) was added to each well. […] The percentage of relative cell viability was counted using the following formula (A570 of handled specimens/A570 of the unhandled specimen), multiplied by 100.

Human CDK2 = target: T1, Human CDK2 (Homo sapiens, UniProt P24941); assay: In vitro CDK2 enzyme assay (ELISA kit); assay type: biochemical
T1 construct: purchased
Description: (§4) Human CDK2, EGFR, HER2, and VEGFR-2 ELISA kits (Enzyme-Linked-Immunosorbent Serologic Assay) were used during this evaluation. At first, specified antibody proteins were added separately to a 96-well plate, then 0.1 mL of the standard solution or the evaluated molecule was added; these were then incubated for 2.5 h at RT. After rinsing, 100 μL of the ready-made biotin antibody protein was added, then incubated for one extra hour at room temperature and, finally, washed. Next, 100 μL of streptavidin solution was added, incubated at room temperature for 45 min, and then washed. Next, 100 μL of the TMB substrate reagent was added and incubated for 0.5 h at RT, followed by adding 50 μL of the stop solution. The absorbance of the ELISA plate was promptly measured at 450 nm using the ELISA plate reader.

[3] = system: MCF-7 cells (mammary gland cancer); assay: MTT cytotoxicity assay, MCF-7; assay type: cell-based; conditions: Homo sapiens, MCF7, 24 h treatment, read-out: In Vitro Cytotoxicity IC50 MCF-7
Description: as §3

HepG2 cells = assay: Annexin V-FITC/PI dual-staining apoptosis analysis; assay type: cell-based, human; conditions: HepG2, 6b at 6.83 μM, 24 h
Description: To identify the mode of cell death promoted by compound 6b within the liver cancer cells (HepG2), apoptosis rate analysis was performed, following 24 h of exposure. […] Moreover, the average proportion of Annexin-V-stained positive cells (total apoptotic cells) was elevated from 2.02% within the untreated cells to 16.84% within the treated ones. […] The provided findings are supported by the previous cell cycle analysis, confirming the potentiality of 6b as a promising anticancer agent (see Table 6 and Figure 6).
Apoptosis analysis was employed to evaluate the apoptotic effect of compound 6b. […] These stained cells were evaluated using flow cytometry equipment Epics XL-MCL™ (Beckman Coulter, Apeldoorn, Netherlands) with an excitation wavelength of 488 nm and an emission wavelength of 530 nm. The results were then analyzed with the Flowing software.

Human HER2 = target: T2, Human HER2 (Homo sapiens, UniProt P04626); assay: In vitro HER2 enzyme assay (ELISA kit); assay type: biochemical
T2 construct: purchased
T2 sequence (P04626 23-1255): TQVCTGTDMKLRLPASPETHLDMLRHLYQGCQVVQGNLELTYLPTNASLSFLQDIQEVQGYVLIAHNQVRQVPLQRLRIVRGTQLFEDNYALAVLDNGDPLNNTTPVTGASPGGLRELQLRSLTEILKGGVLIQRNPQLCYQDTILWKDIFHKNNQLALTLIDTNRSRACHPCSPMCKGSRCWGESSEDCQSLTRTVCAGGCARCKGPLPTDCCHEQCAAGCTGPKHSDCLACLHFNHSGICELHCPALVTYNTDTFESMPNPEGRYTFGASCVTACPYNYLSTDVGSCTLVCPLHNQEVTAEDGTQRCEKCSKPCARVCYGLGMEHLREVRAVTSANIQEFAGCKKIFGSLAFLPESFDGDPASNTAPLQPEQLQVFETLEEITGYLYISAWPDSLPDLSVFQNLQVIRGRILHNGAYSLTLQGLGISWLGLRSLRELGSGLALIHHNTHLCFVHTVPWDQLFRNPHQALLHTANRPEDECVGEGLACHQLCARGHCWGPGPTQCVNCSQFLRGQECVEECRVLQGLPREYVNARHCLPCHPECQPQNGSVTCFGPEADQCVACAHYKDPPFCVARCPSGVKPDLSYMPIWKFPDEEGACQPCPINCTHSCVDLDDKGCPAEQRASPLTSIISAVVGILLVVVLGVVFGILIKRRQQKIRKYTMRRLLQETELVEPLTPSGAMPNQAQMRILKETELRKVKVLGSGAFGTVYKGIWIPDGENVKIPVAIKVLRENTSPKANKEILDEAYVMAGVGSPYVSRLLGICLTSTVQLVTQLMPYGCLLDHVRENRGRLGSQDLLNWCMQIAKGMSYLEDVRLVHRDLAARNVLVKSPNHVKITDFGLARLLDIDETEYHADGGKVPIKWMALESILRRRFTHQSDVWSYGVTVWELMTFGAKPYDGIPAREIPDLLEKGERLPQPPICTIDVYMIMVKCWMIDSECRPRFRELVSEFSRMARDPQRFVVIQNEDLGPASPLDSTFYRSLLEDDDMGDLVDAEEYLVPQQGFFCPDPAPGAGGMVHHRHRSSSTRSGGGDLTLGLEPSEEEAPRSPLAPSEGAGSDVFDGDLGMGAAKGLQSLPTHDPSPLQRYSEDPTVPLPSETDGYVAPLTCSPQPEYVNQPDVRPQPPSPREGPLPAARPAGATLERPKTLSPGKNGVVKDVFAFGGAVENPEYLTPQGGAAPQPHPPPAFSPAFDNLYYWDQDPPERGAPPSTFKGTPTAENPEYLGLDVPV
Description: as §4

Compound: O=C(CSc1nc2ccccc2o1)NN=Cc1ccc[nH]1 (mixture of isomers) [Compound 6b, (E/Z)-N′-((1H-pyrrol-2-yl)methylene)-2-(benzo[d]oxazol-2-ylthio)acetohydrazide]
- Caspase-9 Expression (Caspase-9; 24 h treatment, ELISA): 15.82 ± 0.51 pg/mL
- Caspase-9 Fold (Caspase-9; versus control HepG2 = 1): 3.5 fold
- Bcl-2 Expression (Bcl-2; 24 h treatment, ELISA): 2.822 ± 0.21 pg/mL
- Bcl-2 Fold (Bcl-2; versus control HepG2 = 1): 0.26 fold
- IC50 [1]: ~6.83 µM
- IC50 [2]: 5.18 ± 0.5 µM
- IC50 (Human CDK2): 0.886 ± 0.046 µM
- IC50 [3]: 3.64 ± 0.2 µM
- Early Apoptosis (Lower Right %) (HepG2 cells): 1.64%
- Late Apoptosis (Upper Right %) (HepG2 cells): 10.91%
- Total (%) apoptotic cells (HepG2 cells): 16.84%
- IC50 (Human HER2): 0.224 ± 0.013 µM
